How the values were obtained:
LC3 and p62 = experiment: Autophagy marker immunoblot (LC3-II, p62), U87MG cells; format: cell-based, human; details: for LC3-II levels relative to vehicle control: serum-free DMEM, 10 nM bafilomycin A1, 10 μM EVJ, 5 μM JWJ or 10 μM MK2206 for 6 h; for accumulation of LC3-II in the presence of bafilomycin A1: 10 nM bafilomycin A1 30 min, then inhibitor 6 h
Procedure: Lysates were prepared by incubating cell pellets in lysis buffer (see immunoprecipitation procedure) for 30 minutes at 4° C. Protein concentrations were measuring using the Bio-Rad protein assay reagent. The antibodies used in the various studies as described herein, along with their vendors and catalog numbers are provided in Table 3.
In addition to apoptosis, cells undergo another type of programmed cell death requiring autophagy (Tsujimoto and Shimizu, (2005) Cell Death Differ. 12 Suppl 2, 1528-1534), a process known to be stimulated by nutrient or growth factor deprivation (Kroemer, G. et al., (2010) Mol. Cell 40, 280-293). Autophagy is a multistep process involving formation of double-membrane autophagosomes that engulf cytosolic components and deliver cargo to lysosomes for digestion and nutrient recycling (Ravikumar, B. et al., (2009) J. Cell Sci. 122, 1707-1711). In order to determine if autophagy was perturbed following PLD or Akt inhibitor (MK2206) (Hirai, H. et al., (2010) Mol. Cancer Ther. 9, 1956-1967) treatment, the expression levels of the well-characterized autophagy makers microtubule-associated protein 1A/1B-light chain 3 (LC3) and p62 were measured. Autophagasome number is frequently assessed by measuring conversion of cytosolic LC3-I to a membrane-associated, lipidated LC3-II which is readily measureable as a faster migrating species of LC3 during SDS-PAGE (Kabeya, Y. et al., (2000) EMBO J. 19, 5720-5728). The other marker, p62, is an LC3 and ubiquitin-binding protein, involved in the regulation of protein aggregates and is degraded by autophagy (Komatsu, M. et al., (2005) J. Cell Biol. 169, 425-434). Induction of autophagy and successful degradation of autophagosomes would thus be accompanied by a decrease in p62 levels. […] Fold change in immunoreactivity relative to vehicle control. ANOVA with Dunnett's post-hoc test was used to compare inhibitor treatment to vehicle control (**p<0.01).
To conclusively determine that flux, rather than autophagosome initiation, is regulated by PLC, LC3-II conversion in the presence of the lysosomal proton pump inhibitor bafilomycin A1, which prevents autophagosome fusion to lysosomes and inhibits degradation of autophagosomes, was measured. Thus, bafilomycin A1 is commonly used to discriminate the effects of a compound on autophagy initiation versus flux by assessing LC3-II levels in the presence of a test compound after clamping degradation of autophagosomes (Yamamoto, A. et al., (1998) Cell Struct. Funct. 23, 33-42).

PLD2-Akt interaction = biological target: T1, PLD2-Akt interaction (Homo sapiens, UniProt P31749); experiment: In vitro protein-protein interaction assay, purified PLD2 and Akt; format: binding; details: purified proteins, 10 μM inhibitor in reaction mixture
T1 construct: 6xHis (N); made in house; host or cells: Sf21 insect cells (baculovirus)
Procedure: 25 nM PLD2-PtS or PtS tag were incubated with 50 nM 6×His-Aktl for 2 h in 50 mM Tris pH 8.0, 0.01% Nonidet P-40, 150 mM NaCl, 0.5 mM EDTA, and 50 mg/mL avidin. Where indicated, 10 μM inhibitor was included in the reaction mixture. PtS-tagged proteins were captured by incubation with strep-tactin resin for 2 h.
Although proteins may co-IP from cell lysate, determining whether proteins form a direct interaction requires binding experiments with purified proteins. As described herein, recombinant Akt and PLD2 was then expressed and purified from Sf21 insect cells (FIG. 8C). […] Numbers indicate molecular weights in kilodaltons. […] Since PLD2 and Akt appear to interact directly, the PLD inhibitors were evaluated to determine whether they disrupted the protein-protein interaction as a potential mechanism by which PLD2 regulates activation of Akt in cells. As described herein, purified PLD2 and Akt were incubated in the presence of EVJ, JWJ, or the allosteric pan-Akt inhibitor, MK2206 (Hirai, H. et al., (2010) Mol. Cancer Ther. 9, 1956-1967) and proteins captured using affinity resin. […] Referring to FIG. 9B, the same procedure was used as in 9A, except 10 μM EVJ, JWJ, or Akt inhibitor MK2206 was included in the reaction mixture.

AMPK = AMPK activation immunoblot, U87MG cells; format: cell-based, human; details: for AMPK activation (phosphorylation of threonine 172) / phosphorylation of acetyl-coA carboxylase (serine 79): 24 hours, 10 mM EVJ or 5 mM JWJ
Procedure: Another well-known regulator of autophagy is the adenosine monophosphate-activated protein kinase (AMPK). Changes in intracellular energy balance or metabolic stress are known to activate AMPK (Hardie, D. G. (2007) Nat. Rev. Mol. Cell Bio. 8, 774-785). AMPK serves as a metabolic checkpoint, acting to restore ATP levels through regulation of metabolic enzymes and inhibition of pro-growth anabolic pathways (Hardie, D. G. (2007) Nat. Rev. Mol. Cell Bio. 8, 774-785). […] U87MG cells were treated for 24 hours with […] before lysis and immunoblotting. AMPK activation was measured by assessing phosphorylation at threonine 172 and also by measuring activation of acetyl coenzyme A carboxylase (ACC) at serine 79.
Another AMPK substrate and component of the autophagasome initiation complex is Unc-51-like kinase 1 (ULK1). Several studies (Egan, D. F. et al., (2011) Science 331, 456-461; Kim, J. et al., (2011) Nature Cell Bio. 13, 132-141) have recently identified multiple AMPK sites on ULK1 that function to enhance initiation of autophagy. […] To determine whether the induction of autophagy through AMPK activation requires Akt, Aktl was silenced and then evaluated for effects of PLD inhibition on AMPK and ULK1 phosphorylation. Aktl was chosen to silence since Aktl phosphorylation was decreased following PLD inhibition in U87MG cells. […] U87MG cells were transfected with Aktl siRNA for 72 hours prior to cell lysis. Cells were treated with […] JWJ 24 hours prior to cell lysis.

myrAktl = experiment: Akt phosphorylation immunoblot, myrAktl U87MG cells; format: cell-based, human; details: overnight, serum-free DMEM; 10 μM EVJ or 5 μM JWJ
Procedure: To confirm the observed effects on autophagy and cell death following PLD inhibition in glioma cells was due to the regulation of Akt by PLD2, a stable U87MG cell line was developed to expresses a constitutively active form of Akt under the transcriptional control of the tetracycline repressor protein (Yao, F. et al., (1998) Hum. Gene Ther. 9, 1939-1950). This Akt construct contains the myristoylation sequence from Src kinase (Kohn, A. D. et al., (1996) J. Biol. Chem. 271, 31372-31378) and is constitutively membrane associated and active. Without wishing to be bound by a particular theory, if PtdOH serves to enhance membrane docking of Akt then PLD inhibition should not decrease phosphorylation of myristoylated Akt (myrAkt) since this construct bypasses lipid recruitment signals for membrane association. […] Tetracycline inducible myrAktl-expressing U87MG cells, or parental cells, were seeded into media containing 0.1 ug/ml tetracycline and protein expression induced for approximately 24 hours. […] Cells were seeded and treated as in figure A and immunoblotted for phosphorylated and total AMPK. AMPK activation was quantitated by densitometric quantification of the phospho-AMPK band over the total AMPK band. Fold changes were calculated by normalizing the DMSO condition to 1 for each cell line. […] Referring to FIG. 23B, parental or myrAktl U87MG cells were treated with the indicated inhibitors as in 23A overnight before blotting for phosphorylated and total Akt.

Akt = Akt membrane recruitment (membrane isolation), U87MG cells; format: cell-based, human; details: overnight 5 μM JWJ
Procedure: U87MG cells were seeded in 150 mm tissue culture plates at 2.6×10^6 cells/plate (4 plates per condition) and allowed to adhere overnight. The following day, cells were washed and media replaced with DMEM+indicated inhibitor or vehicle and cells were treated for up to 12 h. Cells were washed twice in 1×PBS then scraped in homogenization buffer (20 mM HEPES pH 7.4, 1 mM EDTA, 250 mM sucrose). Cells were pelleted by centrifugation at 1,000×g for 4 minutes at 4° C. […] Lysate was collected dropwise then centrifuged at 2,000×g for 10 min to pellet unbroken cells, nuclei, and heavy debris. The supernatant was subsequently centrifuged at 100,000×g for 60 min. The supernatant was saved as the cytosolic fraction and the 100,000×g pellet was washed once by resuspension in lysis buffer then centrifuged again under the same conditions.
2.5%, 10%, 17.5%, 25%, and 30% iodixanol solutions were prepared by mixing the appropriate ratios of 50% iodixanol with homogenization buffer. […]
In order to understand the mechanism by which PtdOH regulates Akt activation, it was first determined whether PtdOH and PIP3 share a binding site on Akt. […] Akt binding to PtdOH and PIP3 was then assessed using a protein-lipid overlay assay. […] Bound Akt was determined using an Akt specific antibody. […] GST-Akt PH domain fusion proteins were purified from E. coli and lipid binding was again assessed using a protein-lipid overlay.

PLD = experiment: Endogenous PLD activity assay (PtdBuOH) in U87MG cells; format: cell-based, human
Procedure: Data is presented as the ratio of the predominant phosphatidylbutanol peaks to the internal standard. To generate concentration response curves, U87MG cells were serum starved for approximately 24 hours. Cells were treated with the indicated concentration of PLD inhibitor for 15 minutes prior to addition of n-butanol containing media and phospolipid extraction.
Cells were pretreated with inhibitors 30 min prior to measurement of PLD activity. Data is presented as the percent activity remaining after PLD inhibitor treatment relative to control.

T1 sequence (P31749 whole entry): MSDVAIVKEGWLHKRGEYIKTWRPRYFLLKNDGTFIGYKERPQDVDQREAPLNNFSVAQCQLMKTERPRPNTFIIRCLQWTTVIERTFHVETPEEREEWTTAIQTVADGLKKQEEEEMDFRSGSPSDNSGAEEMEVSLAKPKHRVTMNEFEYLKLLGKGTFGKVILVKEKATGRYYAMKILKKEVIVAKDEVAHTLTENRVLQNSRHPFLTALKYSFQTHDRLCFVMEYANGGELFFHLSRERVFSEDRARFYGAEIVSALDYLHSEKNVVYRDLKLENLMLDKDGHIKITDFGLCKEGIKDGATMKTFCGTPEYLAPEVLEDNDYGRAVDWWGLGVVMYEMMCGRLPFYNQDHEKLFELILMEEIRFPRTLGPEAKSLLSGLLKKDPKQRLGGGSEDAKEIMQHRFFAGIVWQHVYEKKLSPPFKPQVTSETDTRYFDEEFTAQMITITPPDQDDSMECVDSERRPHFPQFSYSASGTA

Compound | LC3-II levels relative to vehicle control (LC3 and p62) | PLD2-Akt interaction (PLD2-Akt interaction) | accumulation of LC3-II in the presence of bafilomycin A1 (LC3 and p62) | AMPK activation (phosphorylation of threonine 172) (AMPK) | phosphorylation of acetyl-coA carboxylase (serine 79) (AMPK) | phosphorylated Akt in myrAktl U87MG cells (myrAktl) | other results
CO/C1=C\C(C)=C\[C@@H](C)[C@@H](O)[C@@H](C)C/C(C)=C/C=C/[C@H](OC)[C@@H]([C@@H](C)[C@@H](O)[C@H](C)[C@@]2(O)C[C@@H](O)[C@H](C)[C@@H](C(C)C)O2)OC1=O [Bafilomycin A1] | increased LC3-II levels relative to vehicle control |  |  |  |  |  | 
NC1(c2ccc(-c3nc4ccn5c(=O)[nH]nc5c4cc3-c3ccccc3)cc2)CCC1 [MK2206] | increased LC3-II levels relative to vehicle control | disrupted the PLD2-Akt interaction | no additional accumulation of LC3-II |  |  |  | 
O=C(NCCN1CCC2(CC1)C(=O)NCN2c1cccc(F)c1)c1ccc2ccccc2c1 [No. 1, N-(2-(1-(3-fluorophenyl)-4-oxo-1,3,8-triazaspiro[4.5]decan-8-yl)ethyl)-2-naphthamide] |  | detected even in the presence of PLD inhibitors | no additional accumulation of LC3-II | observed to increase | increased phosphorylation of acetyl-coA carboxylase | failed to reduce levels of phosphorylated Akt | AMPK or ULK1 phosphorylation when Aktl is silenced (AMPK; Aktl siRNA 72 hours, 5 mM JWJ 24 hours): does not appear to increase AMPK or ULK1 phosphorylation more than DMSO control; membrane recruitment of Akt (Akt): diminished
C[C@@H](CN1CCC(n2c(=O)[nH]c3cc(Br)ccc32)CC1)NC(=O)[C@@H]1C[C@@H]1c1ccccc1 [No. 2, (1R,2S)—N-((S)-1-(4-(5-bromo-2-oxo-2,3-dihydro-1H-benzo[d]imidazol-1-yl)piperidin-1-yl)propan-2-yl)-2-phenylcyclopropane carboxamide] |  | detected even in the presence of PLD inhibitors | no additional accumulation of LC3-II | observed to increase | increased phosphorylation of acetyl-coA carboxylase | failed to reduce levels of phosphorylated Akt | IC50 (PLD; U87MG cells, serum withdrawn 24 h, inhibitor pretreatment 30 min, read-out: IC50, attenuation of PLD activity following serum-withdrawal): ~500 nM
CCC(=O)N1CCN(c2ccc(-n3c(=O)ccc4cnc5ccc(-c6cnc7ccccc7c6)cc5c43)cc2C(F)(F)F)CC1 [Torinl, reference compound] |  |  |  |  |  | decreased phosphorylation of myrAktl | 
C[C@@H](CN1CCC(n2c(=O)[nH]c3cc(Cl)ccc32)CC1)NC(=O)c1ccc2ccccc2c1 [VU0155069, reference compound] |  |  |  |  |  |  | PtdBuOH production (PLD; U87MG glioblastoma cells, FIG. 28B): blocks PtdBuOH production

— patent publication US20170319611A1, “METHODS AND COMPOSITIONS COMPRISING AKT INHIBITORS AND/OR PHOSPHOLIPASE D INHIBITORS” (Vanderbilt University, priority 2012, published 2017)
